Source: ChEMBL document CHEMBL1156950, “Synthesis and biological evaluation of 4-anilinoquinolines as potent inhibitors of epidermal growth factor receptor” (J Med Chem, 2010)

Experiments:
cells [1] = settings: Mus musculus, BaF3, 96 h
Description: Growth inhibition of mouse BA/F3 cells expressing EGFR Del3 mutant after 96 hrs by cell titer-glo assay

[2] = molecular target: Dual specificity protein kinase TTK (Homo sapiens) (UniProt P33981); experiment: Inhibition of TTK at 10 uM assessed as residual activity by [33P]ATP radioactive filter binding assay relative to control
[3] = molecular target: Homeodomain-interacting protein kinase 3 (Homo sapiens) (UniProt Q9H422); experiment: Inhibition of HIPK3 at 10 uM assessed as residual activity by [33P]ATP radioactive filter binding assay relative to control
cells [4] = settings: Mus musculus, BaF3, 96 h; remark: listed apart in the source
Description: Growth inhibition of mouse BA/F3 cells expressing EGFR Del3 and Thr790Met mutant after 96 hrs by cell titer-glo assay

[5] = molecular target: Mitogen-activated protein kinase 14 (Homo sapiens) (UniProt Q16539); experiment: Inhibition of p38alpha at 10 uM assessed as residual activity by [33P]ATP radioactive filter binding assay relative to control
[6] = molecular target: Serine/threonine-protein kinase Chk1 (Homo sapiens) (UniProt O14757); experiment: Inhibition of CHK1 at 10 uM assessed as residual activity by [33P]ATP radioactive filter binding assay relative to control
Serine/threonine-protein kinase Chk1 (Homo sapiens), sequence (O14757 whole entry): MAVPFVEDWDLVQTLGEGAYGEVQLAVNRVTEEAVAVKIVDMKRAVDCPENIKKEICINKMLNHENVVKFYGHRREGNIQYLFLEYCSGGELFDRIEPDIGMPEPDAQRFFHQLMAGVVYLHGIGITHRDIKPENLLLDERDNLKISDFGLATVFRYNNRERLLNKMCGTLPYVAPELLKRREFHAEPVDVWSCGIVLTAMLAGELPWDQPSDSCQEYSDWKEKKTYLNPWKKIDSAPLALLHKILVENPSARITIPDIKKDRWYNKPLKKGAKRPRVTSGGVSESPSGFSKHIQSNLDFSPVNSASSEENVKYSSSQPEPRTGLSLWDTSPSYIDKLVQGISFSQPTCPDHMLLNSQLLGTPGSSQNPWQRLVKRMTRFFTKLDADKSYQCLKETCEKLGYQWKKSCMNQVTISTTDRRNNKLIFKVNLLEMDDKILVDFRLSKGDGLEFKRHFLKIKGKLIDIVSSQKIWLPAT

[7] = Inhibition of AMPK at 10 uM assessed as residual activity by [33P]ATP radioactive filter binding assay relative to control
[8] = molecular target: Serine/threonine-protein kinase Nek6 (Homo sapiens) (UniProt Q9HC98); experiment: Inhibition of NEK6 at 10 uM assessed as residual activity by [33P]ATP radioactive filter binding assay relative to control
Serine/threonine-protein kinase Nek6 (Homo sapiens), sequence (Q9HC98 whole entry): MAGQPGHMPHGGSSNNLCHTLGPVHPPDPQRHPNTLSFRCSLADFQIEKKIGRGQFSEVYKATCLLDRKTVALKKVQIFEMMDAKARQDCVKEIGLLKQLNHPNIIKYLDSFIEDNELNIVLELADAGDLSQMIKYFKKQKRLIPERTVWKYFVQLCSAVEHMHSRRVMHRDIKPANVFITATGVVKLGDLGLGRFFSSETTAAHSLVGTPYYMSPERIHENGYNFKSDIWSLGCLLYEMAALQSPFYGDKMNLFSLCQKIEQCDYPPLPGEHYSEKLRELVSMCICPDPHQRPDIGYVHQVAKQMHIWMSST

[9] = molecular target: Insulin-like growth factor 1 receptor (Homo sapiens) (UniProt P08069); experiment: Inhibition of IGF-1R at 10 uM assessed as residual activity by [33P]ATP radioactive filter binding assay relative to control
[10] = molecular target: Glycogen synthase kinase-3 beta (Homo sapiens) (UniProt P49841); experiment: Inhibition of GSK3-beta at 10 uM assessed as residual activity by [33P]ATP radioactive filter binding assay relative to control
Glycogen synthase kinase-3 beta (Homo sapiens), sequence (P49841 whole entry, looked up): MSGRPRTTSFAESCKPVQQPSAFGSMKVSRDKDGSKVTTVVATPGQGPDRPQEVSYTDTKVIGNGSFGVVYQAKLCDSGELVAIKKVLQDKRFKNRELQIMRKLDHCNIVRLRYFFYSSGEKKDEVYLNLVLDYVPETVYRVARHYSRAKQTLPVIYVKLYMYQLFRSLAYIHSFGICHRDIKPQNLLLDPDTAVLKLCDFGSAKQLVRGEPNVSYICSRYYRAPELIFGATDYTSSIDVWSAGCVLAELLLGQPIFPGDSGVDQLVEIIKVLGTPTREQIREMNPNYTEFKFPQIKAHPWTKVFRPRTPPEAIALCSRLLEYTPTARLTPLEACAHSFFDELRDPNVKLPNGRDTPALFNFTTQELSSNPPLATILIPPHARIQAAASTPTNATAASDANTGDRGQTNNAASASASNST

[11] = molecular target: Homeodomain-interacting protein kinase 2 (Homo sapiens) (UniProt Q9H2X6); experiment: Inhibition of HIPK2 at 10 uM assessed as residual activity by [33P]ATP radioactive filter binding assay relative to control
Homeodomain-interacting protein kinase 2 (Homo sapiens), sequence (Q9H2X6 whole entry, looked up): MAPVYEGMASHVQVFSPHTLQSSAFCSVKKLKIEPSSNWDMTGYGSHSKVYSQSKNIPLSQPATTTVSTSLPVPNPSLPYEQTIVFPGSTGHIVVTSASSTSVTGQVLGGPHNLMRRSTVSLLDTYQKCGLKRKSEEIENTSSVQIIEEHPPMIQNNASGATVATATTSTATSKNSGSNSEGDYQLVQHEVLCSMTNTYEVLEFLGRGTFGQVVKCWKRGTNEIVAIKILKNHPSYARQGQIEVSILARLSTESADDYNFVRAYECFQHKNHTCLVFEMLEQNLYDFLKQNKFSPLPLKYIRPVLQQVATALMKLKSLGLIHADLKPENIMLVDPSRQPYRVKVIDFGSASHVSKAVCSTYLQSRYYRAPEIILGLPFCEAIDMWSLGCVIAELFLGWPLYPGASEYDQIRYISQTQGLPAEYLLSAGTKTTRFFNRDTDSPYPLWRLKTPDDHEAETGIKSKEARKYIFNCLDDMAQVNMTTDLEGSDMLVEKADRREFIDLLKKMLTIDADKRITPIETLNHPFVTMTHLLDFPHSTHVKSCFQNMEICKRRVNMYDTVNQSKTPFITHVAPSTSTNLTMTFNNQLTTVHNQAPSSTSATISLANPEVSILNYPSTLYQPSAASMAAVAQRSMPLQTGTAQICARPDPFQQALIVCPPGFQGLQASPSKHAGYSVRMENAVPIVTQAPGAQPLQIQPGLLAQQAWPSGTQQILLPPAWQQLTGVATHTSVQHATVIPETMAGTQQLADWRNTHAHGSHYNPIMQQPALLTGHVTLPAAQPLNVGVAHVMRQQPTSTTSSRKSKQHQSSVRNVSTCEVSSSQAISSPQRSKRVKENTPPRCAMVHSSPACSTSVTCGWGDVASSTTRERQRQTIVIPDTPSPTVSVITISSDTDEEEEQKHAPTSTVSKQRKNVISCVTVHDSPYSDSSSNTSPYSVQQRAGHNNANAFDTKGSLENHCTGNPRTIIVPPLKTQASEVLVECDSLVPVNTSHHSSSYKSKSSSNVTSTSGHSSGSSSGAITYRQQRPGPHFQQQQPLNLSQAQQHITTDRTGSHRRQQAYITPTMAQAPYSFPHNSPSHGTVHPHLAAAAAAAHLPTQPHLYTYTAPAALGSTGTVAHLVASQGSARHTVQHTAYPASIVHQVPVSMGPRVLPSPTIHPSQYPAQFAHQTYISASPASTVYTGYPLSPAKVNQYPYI

[12] = molecular target: Mitogen-activated protein kinase kinase kinase 11 (Homo sapiens) (UniProt Q16584); experiment: Inhibition of MLK3 at 10 uM assessed as residual activity by [33P]ATP radioactive filter binding assay relative to control
[13] = molecular target: Calcium/calmodulin-dependent protein kinase kinase 2 (Homo sapiens) (UniProt Q96RR4); experiment: Inhibition of CAMKKbeta at 10 uM assessed as residual activity by [33P]ATP radioactive filter binding assay relative to control
[14] = molecular target: Dual specificity tyrosine-phosphorylation-regulated kinase 2 (Homo sapiens) (UniProt Q92630); experiment: Inhibition of DYRK2 at 10 uM assessed as residual activity by [33P]ATP radioactive filter binding assay relative to control
[15] = molecular target: Fibroblast growth factor receptor 1 (Homo sapiens) (UniProt P11362); experiment: Inhibition of FGF-R1 at 10 uM assessed as residual activity by [33P]ATP radioactive filter binding assay relative to control
[16] = molecular target: Serine/threonine-protein kinase STK11 (Homo sapiens) (UniProt Q15831); experiment: Inhibition of LKB1 at 10 uM assessed as residual activity by [33P]ATP radioactive filter binding assay relative to control
Serine/threonine-protein kinase STK11 (Homo sapiens), sequence (Q15831 whole entry): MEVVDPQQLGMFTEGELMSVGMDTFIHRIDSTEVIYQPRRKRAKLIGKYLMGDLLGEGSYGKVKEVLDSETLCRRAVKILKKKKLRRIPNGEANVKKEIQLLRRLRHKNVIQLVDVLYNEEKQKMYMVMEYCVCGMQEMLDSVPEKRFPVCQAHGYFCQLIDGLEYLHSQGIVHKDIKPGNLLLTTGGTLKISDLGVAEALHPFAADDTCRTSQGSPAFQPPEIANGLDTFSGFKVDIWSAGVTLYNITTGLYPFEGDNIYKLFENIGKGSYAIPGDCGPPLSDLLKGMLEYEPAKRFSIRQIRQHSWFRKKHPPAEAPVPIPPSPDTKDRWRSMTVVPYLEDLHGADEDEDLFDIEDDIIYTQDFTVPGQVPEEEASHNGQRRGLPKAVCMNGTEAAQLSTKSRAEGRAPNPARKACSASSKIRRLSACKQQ

cells [17] = settings: Mus musculus, BaF3, 96 h; remark: listed apart in the source
Description: Growth inhibition of mouse BA/F3 cells expressing EGFR Del1 mutant after 96 hrs by cell titer-glo assay

[18] = molecular target: MAP kinase-activated protein kinase 5 (Homo sapiens) (UniProt Q8IW41); experiment: Inhibition of PRAK at 10 uM assessed as residual activity by [33P]ATP radioactive filter binding assay relative to control
[19] = molecular target: Serine/threonine-protein kinase PAK 4 (Homo sapiens) (UniProt O96013); experiment: Inhibition of PAK4 at 10 uM assessed as residual activity by [33P]ATP radioactive filter binding assay relative to control
[20] = molecular target: Serine/threonine-protein kinase pim-3 (Homo sapiens) (UniProt Q86V86); experiment: Inhibition of PIM3 at 10 uM assessed as residual activity by [33P]ATP radioactive filter binding assay relative to control
[21] = molecular target: Serine/threonine-protein kinase BRSK1 (Homo sapiens) (UniProt Q8TDC3); experiment: Inhibition of BRSK1 at 10 uM assessed as residual activity by [33P]ATP radioactive filter binding assay relative to control
[22] = molecular target: Serine/threonine-protein kinase Nek2 (Homo sapiens) (UniProt P51955); experiment: Inhibition of NEK2a at 10 uM assessed as residual activity by [33P]ATP radioactive filter binding assay relative to control
[23] = molecular target: Aurora kinase B (Homo sapiens) (UniProt Q96GD4); experiment: Inhibition of Aurora B at 10 uM assessed as residual activity by [33P]ATP radioactive filter binding assay relative to control
[24] = molecular target: MAP/microtubule affinity-regulating kinase 3 (Homo sapiens) (UniProt P27448); experiment: Inhibition of MARK3 at 10 uM assessed as residual activity by [33P]ATP radioactive filter binding assay relative to control
MAP/microtubule affinity-regulating kinase 3 (Homo sapiens), sequence (P27448 whole entry, looked up): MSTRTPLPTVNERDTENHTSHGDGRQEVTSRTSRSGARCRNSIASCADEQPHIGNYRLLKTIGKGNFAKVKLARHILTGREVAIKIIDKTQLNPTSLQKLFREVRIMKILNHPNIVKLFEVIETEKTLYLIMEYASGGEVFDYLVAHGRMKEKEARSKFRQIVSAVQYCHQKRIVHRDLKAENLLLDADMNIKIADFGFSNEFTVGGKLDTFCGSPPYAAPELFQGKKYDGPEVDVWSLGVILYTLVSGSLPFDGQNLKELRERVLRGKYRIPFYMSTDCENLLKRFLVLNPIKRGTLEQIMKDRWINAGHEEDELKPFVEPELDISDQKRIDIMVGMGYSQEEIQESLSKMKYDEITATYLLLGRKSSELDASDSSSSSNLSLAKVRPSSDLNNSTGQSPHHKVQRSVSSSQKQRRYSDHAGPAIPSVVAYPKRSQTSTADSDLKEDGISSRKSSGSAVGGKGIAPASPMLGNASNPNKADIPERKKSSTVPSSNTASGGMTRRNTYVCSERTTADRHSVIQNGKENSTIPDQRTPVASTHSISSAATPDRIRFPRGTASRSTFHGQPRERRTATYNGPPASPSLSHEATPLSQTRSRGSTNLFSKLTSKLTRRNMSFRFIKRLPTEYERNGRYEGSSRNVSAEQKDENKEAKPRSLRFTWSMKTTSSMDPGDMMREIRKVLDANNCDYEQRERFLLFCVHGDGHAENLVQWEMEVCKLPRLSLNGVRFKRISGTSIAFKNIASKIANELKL

[25] = molecular target: Receptor-interacting serine/threonine-protein kinase 2 (Homo sapiens) (UniProt O43353); experiment: Inhibition of RIPK2 at 10 uM assessed as residual activity by [33P]ATP radioactive filter binding assay relative to control
Receptor-interacting serine/threonine-protein kinase 2 (Homo sapiens), sequence (O43353 whole entry): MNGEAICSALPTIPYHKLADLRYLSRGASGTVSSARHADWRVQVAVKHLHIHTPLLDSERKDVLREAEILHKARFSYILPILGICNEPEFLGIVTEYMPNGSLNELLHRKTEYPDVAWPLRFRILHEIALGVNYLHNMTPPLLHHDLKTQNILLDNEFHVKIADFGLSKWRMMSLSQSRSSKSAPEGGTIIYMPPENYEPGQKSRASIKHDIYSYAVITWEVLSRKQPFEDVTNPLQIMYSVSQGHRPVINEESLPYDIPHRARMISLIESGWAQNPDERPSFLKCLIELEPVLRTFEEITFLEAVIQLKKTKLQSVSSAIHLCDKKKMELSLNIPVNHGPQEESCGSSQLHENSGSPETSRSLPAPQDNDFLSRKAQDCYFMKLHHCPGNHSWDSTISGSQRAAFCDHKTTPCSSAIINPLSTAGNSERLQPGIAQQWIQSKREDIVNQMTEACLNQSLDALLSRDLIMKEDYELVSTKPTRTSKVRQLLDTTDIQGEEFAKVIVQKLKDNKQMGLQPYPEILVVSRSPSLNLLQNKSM

[26] = molecular target: Eukaryotic elongation factor 2 kinase (Homo sapiens) (UniProt O00418); experiment: Inhibition of EF2K at 10 uM assessed as residual activity by [33P]ATP radioactive filter binding assay relative to control
[27] = molecular target: Ephrin type-B receptor 3 (Homo sapiens) (UniProt P54753); experiment: Inhibition of EPH-B3 at 10 uM assessed as residual activity by [33P]ATP radioactive filter binding assay relative to control
cells [28] = settings: Mus musculus, BaF3, 96 h; remark: listed apart in the source
Description: Growth inhibition of mouse BA/F3 cells expressing EGFR Del5 mutant after 96 hrs by cell titer-glo assay

[29] = molecular target: Tyrosine-protein kinase CSK (Homo sapiens) (UniProt P41240); experiment: Inhibition of CSK at 10 uM assessed as residual activity by [33P]ATP radioactive filter binding assay relative to control
[30] = molecular target: Mitogen-activated protein kinase 12 (Homo sapiens) (UniProt P53778); experiment: Inhibition of p38-gamma at 10 uM assessed as residual activity by [33P]ATP radioactive filter binding assay relative to control
[31] = molecular target: Cyclin-dependent kinase 2/cyclin A (Homo sapiens) (UniProt P24941+P20248+P78396); experiment: Inhibition of CDK2/Cyclin A at 10 uM assessed as residual activity by [33P]ATP radioactive filter binding assay relative to control; format: protein-complex assay
[32] = molecular target: Serine/threonine-protein kinase N2 (Homo sapiens) (UniProt Q16513); experiment: Inhibition of PRK2 at 10 uM assessed as residual activity by [33P]ATP radioactive filter binding assay relative to control
[33] = molecular target: Mitogen-activated protein kinase 13 (Homo sapiens) (UniProt O15264); experiment: Inhibition of p38delta at 10 uM assessed as residual activity by [33P]ATP radioactive filter binding assay relative to control
Mitogen-activated protein kinase 13 (Homo sapiens), sequence (O15264 whole entry): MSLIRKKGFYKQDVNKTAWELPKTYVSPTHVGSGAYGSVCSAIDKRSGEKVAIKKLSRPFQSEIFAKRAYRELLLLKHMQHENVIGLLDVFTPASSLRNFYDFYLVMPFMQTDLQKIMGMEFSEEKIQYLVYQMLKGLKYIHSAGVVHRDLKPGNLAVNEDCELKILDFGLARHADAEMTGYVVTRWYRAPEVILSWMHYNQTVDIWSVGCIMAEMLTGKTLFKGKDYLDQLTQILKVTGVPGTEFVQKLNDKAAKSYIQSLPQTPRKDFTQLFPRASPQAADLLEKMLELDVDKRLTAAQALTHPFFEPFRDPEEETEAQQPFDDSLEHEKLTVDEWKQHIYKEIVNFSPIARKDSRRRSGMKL

[34] = molecular target: Insulin receptor (Homo sapiens) (UniProt P06213); experiment: Inhibition of His-IR at 10 uM assessed as residual activity by [33P]ATP radioactive filter binding assay relative to control

| SMILES | GI50 (cells [1]) | Activity [2] | Activity [3] | GI50 (cells [4]) | Activity [5] | Activity [6] | Activity [7] | Activity [8] | Activity [9] | Activity [10] | Activity [11] | Activity [12] | Activity [13] | Activity [14] | Activity [15] | Activity [16] | GI50 (cells [17]) | Activity [18] | Activity [19] | Activity [20] | further results |
| --- | --- | --- | --- | --- | --- | --- | --- | --- | --- | --- | --- | --- | --- | --- | --- | --- | --- | --- | --- | --- | --- |
| CN(C)CCCC(=O)Nc1ccc2ncnc(Nc3cccc(Br)c3)c2c1 | < 500 nM | 86% | 106% | > 5000 nM | 63% | 79% | 70% | 77% | 105% | 96% | 97% | 65% | 66% | 51% | 37% | 103% | < 500 nM | 89% | 83% | 32% | Activity [21]: 52%; Activity [22]: 96%; Activity [23]: 21%; Activity [24]: 86%; Activity [25]: 10%; Activity [26]: 91%; Activity [27]: 17%; GI50 (cells [28]): < 500 nM; Activity [29]: 63%; Activity [30]: 85%; Activity [31]: 93%; Activity [32]: 37%; Activity [33]: 79%; Activity [34]: 79% |
| CN(C)CCCC(=O)Nc1ccc2nccc(Nc3cccc(Br)c3)c2c1 | < 500 nM | 85% | 96% | > 500 nM | 30% | 83% | 83% | 85% | 71% | 89% | 104% | 84% | 74% | 52% | 31% | 94% | < 500 nM | 84% | 79% | 66% | Activity [21]: 46%; Activity [22]: 95%; Activity [23]: 33%; Activity [24]: 94%; Activity [25]: 10%; Activity [26]: 99%; Activity [27]: 5%; GI50 (cells [28]): < 500 nM; Activity [29]: 73%; Activity [30]: 94%; Activity [31]: 88%; Activity [32]: 36%; Activity [33]: 76%; Activity [34]: 85% |
